Laboratory results published in patent EP0082731A1, “The use of peptides as medicaments” (NOVO INDUSTRI A/S, priority 1981, dated 1983).

What was measured:
[1] = test system: isolated perfused rat pancreas; conditions: known effect of glucagon; cited from earlier work
[2] = test system: Normoglycaemic Rats; assay: Experiment D: effect on plasma glucose and plasma IRI levels in normoglycaemic rats; format: in vivo, Wistar rats; conditions: normally fed rats; for Blood glucose / Plasma IRI: i.v. injection at 0 min, equimolar doses (glucagon 1 mg/kg, glucagon(1-21) 0.77 mg/kg), mean, N = 10
Experimental: Glucagon (-1 mg/kg) and an equimolar dosis of glucagon(1-21), i.e. 0.77 mg/kg, were injected intravenously at the beginning time (time: 0 minutes) to normally fed male Wistar rats weighing 150 g (+/- 5 g). Blood samples were taken from the orbital plexus at the times -5, 2, 5, 10, 15, 30, and 60 minutes. Blood glucose was assayed according to the hexokinase method and plasma insulin was assayed by RIA. […] Contrary to glucagon, glucagon(1-21) had no effect on these parameters. Mean blood glucose values (N = 10) are stated in Table VI below, and mean plasma IRI values (N = 10) are stated in Table VII below.

[3] = test system: isolated perfused rat pancreas; assay: IRI (insulin) release from the isolated perfused rat pancreas
Source text: Such a use should be especially safe as no hypoglycaemia will occur during treatment because of the lack of IRI releasing effect in the presence of hypoglycaemia and normoglycaemia.
Furthermore, it is stated therein that compounds of formula I show no or minor, negligible metabolic effects. […] Based thereupon it is surprising that compounds of formula I have an insulin releasing effect on animals primed with glucose corresponding to hyperglycaemia.

[4] = test system: rats; assay: Metabolic effects after administration to normally fasted and fed rats in vivo
[5] = test system: rat free fat cells; assay: Lipolytic effect on rat free fat cells in vitro; format: cell-based; conditions: compared with glucagon
[6] = i.v., glucagon 1 mg/kg, glucagon(1-21) 0.77 mg/kg
[7] = buffer glucose concentration 2.0 mg/ml

In the case of Glucagon [reference compound], the insulin release [1] is given as “releases insulin”, the Blood glucose ([2]; time 2 min) is given as 1.2 mg/mL and the “Plasma IRI” value ([2]; time 2 min) is given as 95 µU/ml. For the same substance, the Blood glucose ([2]; time 5 min) was 1.3 mg/mL, the “Plasma IRI” value ([2]; time 5 min) was 98 µU/ml and the Blood glucose ([2]; time 10 min) was 1.3 mg/mL. For the same substance, the “Plasma IRI” value ([2]; time 10 min) was 82 µU/ml, the Blood glucose ([2]; time 15 min) was 1.4 mg/mL and the “Plasma IRI” value ([2]; time 15 min) was 67 µU/ml. The Blood glucose ([2]; time 30 min) was 1.5 mg/mL, the “Plasma IRI” value ([2]; time 30 min) was 53 µU/ml and the Blood glucose ([2]; time 60 min) was 1.1 mg/mL. For the same substance, the “Plasma IRI” value ([2]; time 60 min) was 17 µU/ml, the Blood glucose ([2]; time -5 min) was 0.9 mg/mL and the “Plasma IRI” value ([2]; time -5 min) was 19 µU/ml. The “effect on blood glucose” value [2, 6] was “significantly increasing effect”, the “effect on plasma IRI” value [2, 6] was “significantly increasing effect” and the insulin releasing effect ([3]; at hyperglycaemia) was “have this effect”. The insulin releasing effect ([3]; in the presence of normoglycaemia and hypoglycaemia) was “has an insulin releasing effect”.
With “des-pentapeptide-(22-26)-glucagon [des(22-26)glucagon]” the metabolic effects [4] was “No metabolic effects have been found”, the lipolytic effect [5] was “negligible” and the insulin releasing effect ([3]; at hyperglycaemia) was “have this effect”. For the same substance, the insulin releasing effect [3, 7] was “possesses an insulin releasing effect”.
For “glucagon(1-26) (HSQGTFTSDYSKYLDSRRAQDFVQWL; Glucagon; UniProt P01275 53-78, looked up, fragment)”, the metabolic effects [4] was “No metabolic effects have been found”, the lipolytic effect [5] was “negligible” and the insulin releasing effect ([3]; at hyperglycaemia) was “have this effect”. For the same substance, the insulin releasing effect [3, 7] was “possesses an insulin releasing effect”.
